“Also recorded” adds a separate entry of the source. Where a name gives a salt, the structure may show the parent alone. Read-outs that look alike come from different tables or passages of the source.
Tests used:
[1] = Cytotoxicity, CellTiter-Glo cell viability; conditions: dog, uninfected MDCK cells
[2] = tested on: A/Maonan/SWL1536/2019 (H1N1); experiment: CPE inhibition assay; format: cell-based
A/NY/61/LV16A (H1N1) [3] = experiment: CPE inhibition assay; format: cell-based
B/Washington/02/2019 = experiment: CPE inhibition assay; format: cell-based
A/17/HK/2014/8296 (H3N2) = experiment: CPE inhibition assay; format: cell-based
A/NY/61/LV16A (H1N1) [4] = experiment: Binding assay; format: cell-based, influenza virus
[5] = uninfected mice, 5 mg/kg i.p.
A/NY/61/LV16A (H1N1) [6] = experiment: Viral nucleoprotein (NP) by Western blotting; format: cell-based, influenza virus
A/NY/61/LV16A (H1N1) [7] = experiment: Time of addition assay; format: cell-based, influenza virus
A/NY/61/LV16A (H1N1) [8] = format: cell-based; conditions: 15 μM, A549 cells, MOI = 1, 16 hpi, vs virus control
LC3B-II and p62 = experiment: Autophagy markers by Western blotting in A549 cells; format: cell-based; conditions: dose- and time-dependent
A/NY/61/LV16A (H1N1) [9] = experiment: Entry assay; format: cell-based, influenza virus
in vitro [10] = conditions: human
A/NY/61/LV16A (H1N1) [11] = format: in vivo, BALB/c mice; conditions: for survival rate: 5 mg/kg i.p. once daily for 6 days, H1N1 i.n., 14 days; for H1N1 virus titers in the lungs compared to placebo / lung histopathology changes (H&E) / lung index compared to placebo / lung viral load compared to placebo: mouse, in vivo, ip
A/NY/61/LV16A (H1N1) [12] = experiment: H1N1 RNA replication by qRT-PCR in MDCK cells; format: cell-based, influenza virus
in vitro [13] = conditions: dog
Rab7 = format: cell-based; conditions: 15 µM, A549 cells, 3 hpi
[14] = tested on: influenza virus strains (H1N1, H3N2, influenza B virus); experiment: CPE inhibition assay, all influenza virus strains tested; format: cell-based; conditions: unidentified influenza virus; range over five strains, MDCK cells; read-out: EC50 values ranging, all influenza virus strains tested
A/NY/61/LV16A (H1N1) [15] = experiment: H1N1 NP mRNA by qRT-PCR in A549 cells treated with autophagy inhibitors; format: cell-based, influenza virus
[16] = tested on: Corynebacterium diphtheriae; design: method as in PMID 29138439; conditions: cited from earlier work
Ebola virus = conditions: cited from earlier work
HSV-2 = conditions: cited from earlier work
[17] = Influenza B virus; B/M2; infected MDCK cells, MOI = 0.01, 48 hpi; read-out: EC50 ± SD B/Washington/02/2019
[18] = Influenza A virus, H1N1, MDCK; read-out: EC50 ± SD A/Maonan/SWL1536/2019 (H1N1)
[19] = Influenza A virus, H1N1, MDCK; read-out: EC50 ± SD A/NY/61/LV16A (H1N1)
[20] = Influenza A virus, H1N1; MDCK cells; read-out: EC90 (approximately)
[21] = Influenza A virus, H3N2, MDCK; read-out: EC50 ± SD A/17/HK/2014/8296 (H3N2)

NC(=O)c1ncn([C@@H]2O[C@H](CO)[C@@H](O)[C@H]2O)n1 [Ribavirin, ribavirin]
CC50 at 72 h [1]: 5480 ± 255 µM | EC50 ([2]; Influenza A virus, H1N1, MDCK, read-out: EC50 ± SD A/Maonan/SWL1536/2019 (H1N1)): 3.2 ± 0.34 µM | EC50 (A/NY/61/LV16A (H1N1) [3]; Influenza A virus, H1N1, MDCK, read-out: EC50 ± SD A/NY/61/LV16A (H1N1)): 1.61 ± 0.62 µM | EC50 (B/Washington/02/2019; [17]): 3.02 ± 0.39 µM | EC50 (A/17/HK/2014/8296 (H3N2); Influenza A virus, H3N2, MDCK, read-out: EC50 ± SD A/17/HK/2014/8296 (H3N2)): 0.13 ± 0.04 µM

COc1ccc(Br)cc1CNC12CC3CC(CC(C3)C1)C2 [ABMA, 1-adamantyl (5-bromo-2-methoxybenzyl) amine]
binding of the virus to cells (A/NY/61/LV16A (H1N1) [4]): do not affect | changes in animal behavior, lethargy and body weight [5]: No remarkable changes | NP expression levels (Western blot) (A/NY/61/LV16A (H1N1) [6]): reduced; also recorded: decreased | H1N1 RNA content, time of addition (A/NY/61/LV16A (H1N1) [7]): significantly reduced | NP fluorescence signal (A/NY/61/LV16A (H1N1) [8]): significantly decreased | LC3B-II level (LC3B-II and p62): increased | p62 level (LC3B-II and p62): increased | EC50 [2, 18]: 4.57 ± 0.33 µM | entry stage of H1N1 (A/NY/61/LV16A (H1N1) [9]): significantly inhibited | CC50 (in vitro [10]): 83.8 ± 1.92 µM | survival rate (A/NY/61/LV16A (H1N1) [11]): 67% | H1N1 virus titers in the lungs compared to placebo (A/NY/61/LV16A (H1N1) [11]): lower titers | lung histopathology changes (H&E) (A/NY/61/LV16A (H1N1) [11]): significant reduction | lung index compared to placebo (A/NY/61/LV16A (H1N1) [11]): significantly reduced | lung viral load compared to placebo (A/NY/61/LV16A (H1N1) [11]): significantly reduced | inhibition of H1N1 RNA replication (qRT-PCR) (A/NY/61/LV16A (H1N1) [12]): 81.77% | CC50 at 72 h (in vitro [13]): 72.3 ± 1.09 µM | Rab7 protein fluorescence (Rab7): largely increased | EC50 (A/NY/61/LV16A (H1N1) [3]; [19]): 3.25 ± 0.17 µM | EC90 (A/NY/61/LV16A (H1N1) [3]; [20]): ~15 µM | EC50 [14]: 2.83 to 7.36 µM | EC50 (B/Washington/02/2019; [17]): 7.36 ± 0.65 µM | EC50 (A/17/HK/2014/8296 (H3N2); [21]): 5.58 ± 0.38 µM

COc1ccc(Br)cc1CNC12CC3CC(C)(CC(C)(C3)C1)C2 [DABMA, 1,3-dimethyl-1-adamantyl (5-bromo-2-methoxybenzyl) amine]
binding of the virus to cells (A/NY/61/LV16A (H1N1) [4]): do not affect | changes in animal behavior, lethargy and body weight [5]: No remarkable changes | NP expression levels (Western blot) (A/NY/61/LV16A (H1N1) [6]): reduced | H1N1 RNA content, time of addition (A/NY/61/LV16A (H1N1) [7]): significantly reduced | NP fluorescence signal (A/NY/61/LV16A (H1N1) [8]): significantly decreased | EC50 [2, 18]: 2.69 ± 0.26 µM | entry stage of H1N1 (A/NY/61/LV16A (H1N1) [9]): significantly inhibited | CC50 (in vitro [10]): 47.4 ± 1.68 µM | survival rate (A/NY/61/LV16A (H1N1) [11]): 67% | H1N1 virus titers in the lungs compared to placebo (A/NY/61/LV16A (H1N1) [11]): lower titers | lung histopathology changes (H&E) (A/NY/61/LV16A (H1N1) [11]): significant reduction | lung index compared to placebo (A/NY/61/LV16A (H1N1) [11]): significantly reduced | lung viral load compared to placebo (A/NY/61/LV16A (H1N1) [11]): significantly reduced | inhibition of H1N1 RNA replication (qRT-PCR) (A/NY/61/LV16A (H1N1) [12]): 86.51% | CC50 at 72 h (in vitro [13]): 42.7 ± 1.46 µM | EC50 (A/NY/61/LV16A (H1N1) [3]; [19]): 1.82 ± 0.11 µM | EC90 (A/NY/61/LV16A (H1N1) [3]; [20]): ~15 µM | EC50 [14]: 1.82 to 6.73 µM | EC50 (B/Washington/02/2019; [17]): 6.62 ± 0.46 µM | EC50 (A/17/HK/2014/8296 (H3N2); [21]): 6.73 ± 0.73 µM

Cn1cnc(N)c2ncnc1-2 [3-MA, 3-methyladenine]
H1N1 RNA content (A/NY/61/LV16A (H1N1) [15]): significantly decreased

CC(N)C12CC3CC(CC(C3)C1)C2 (stereo not shown) [1-(1-adamantyl) ethylamine]
activity against Corynebacterium diphtheriae [16]: inactive | activity against Ebola virus (Ebola virus): inactive | activity against HSV-2 infection (HSV-2): inactive

CC12CC3CC(C)(C1)CC(N)(C3)C2 [memantine]
activity against Corynebacterium diphtheriae [16]: inactive | activity against Ebola virus (Ebola virus): inactive | activity against HSV-2 infection (HSV-2): inactive

NC12CC3CC(CC(C3)C1)C2 [Amantadine, Amantadine hydrochloride]
activity against Corynebacterium diphtheriae [16]: inactive | activity against Ebola virus (Ebola virus): inactive | EC50 [2, 18]: 20.2 ± 1.36 µM | CC50 (in vitro [13]): 477 ± 39.5 µM | EC50 (A/NY/61/LV16A (H1N1) [3]; [19]): 9.97 ± 1.34 µM | antiviral activity against B/Washington/02/2019 (IBV) (B/Washington/02/2019): did not show antiviral activity; also recorded: no significant protection | EC50 (B/Washington/02/2019; Influenza B virus, MDCK, read-out: EC50 ± SD B/Washington/02/2019): > 100 µM | activity against HSV-2 infection (HSV-2): inactive | EC50 (A/17/HK/2014/8296 (H3N2); [21]): 8.27 ± 0.66 µM

CO/C1=C\C(C)=C\[C@@H](C)[C@@H](O)[C@@H](C)C/C(C)=C/C=C/[C@H](OC)[C@@H]([C@@H](C)[C@@H](O)[C@H](C)[C@@]2(O)C[C@@H](O)[C@H](C)[C@@H](C(C)C)O2)OC1=O [Baf A1, Bafilomycin A1, reference compound]
NP expression levels (Western blot) (A/NY/61/LV16A (H1N1) [6]): decreased | H1N1 RNA content (A/NY/61/LV16A (H1N1) [15]): significantly decreased

CCN(CC)CCCC(C)Nc1ccnc2cc(Cl)ccc12 (stereo not shown) [Chloroquine, reference compound]
EC50 (A/NY/61/LV16A (H1N1) [3]; [19]): 17.1 ± 2.27 µM | EC50 (A/17/HK/2014/8296 (H3N2); [21]): 12 ± 1.26 µM

CCOC(=O)C1=C[C@@H](OC(CC)CC)[C@H](NC(C)=O)[C@@H](N)C1 [Oseltamivir, Oseltamivir phosphate]
EC50 [2, 18]: 2.95 ± 0.21 µM | CC50 at 72 h (in vitro [13]): 1890 ± 71.8 µM | EC50 (A/NY/61/LV16A (H1N1) [3]; [19]): 7.97 ± 0.85 µM | EC50 (B/Washington/02/2019; Influenza B virus, MDCK; read-out: EC50 ± SD B/Washington/02/2019): 8.53 ± 1.64 µM | EC50 (A/17/HK/2014/8296 (H3N2); [21]): 7.3 ± 0.79 µM
